Assay results as given in patent publication US6458764B1, “GRF analogs with increased biological potency” (Theratechnologies Inc., priority 1995, dated 2002).
Where no end group is shown, it is not given here. The star is where a group is joined. Hexenoyl(3E) = CC/C=C/CC(=O)*

Columns and labels:
IGF-1 levels in pig sera = experiment: Effect of hGRF(1-44)NH2 analogs on IGF-1 levels following S.C. chronic administration in growing male pigs (Example XI, IRMA); format: in vivo
Protocol: The objective of this experiment was to compare the effects of 8 different hGRF(1-44)NH2 analogues including TH 9507 on IGF-1 levels following S.C. chronic administration in growing male pigs.
Animal procedures were conducted as described in the protocol GRF-30 submitted Apr. 30, 1999, with the following modification: only 8 GRF analogues, including TH 9507, were provided by the sponsor. Accordingly, the study was performed on 30 pigs.
Laboratory procedures were conducted as follow: IGF-l levels were measured in pig sera using a commercial kit (DSL-5600) purchased from Diagnostic Systems Laboratories Inc., Tex., USA. Briefly, IGF-1 levels are quantified using a two-site immunoradiometric assay (IRMA) following acid-ethanol extraction.
Statistical analysis: IGF-1 data were subjected to a two-way repeated measures analysis of variance, with time (day 1, 3 or 6) and treatments (A to J) as variation factors pairwise multiple comparison procedures were then run by the Student-Newman-Keuls method. All statistical procedures were performed using the computerized SigmaStat software (Jandel Scientific). A P<0.05 was considered statistically significant.

[1] = metabolites have no residual biological activity; cited from earlier work
serum IGF-I = experiment: Repeated S.C. administrations of GRF analogs, serum IGF-I levels in pigs (Example I, Experiments 1-3; radioimmunoassay); format: in vivo, pigs (Landrace x Yorkshire); details: for serum IGF-I, Day 1 (pretreatment): pretreatment baseline
Protocol: The objective of these experiments was to assess the potential of the GRF analogs as anabolic agents.
Therefore, in order to investigate the anabolic potency of the fatty acid-GRF analogs, their ability to increase IGF-I levels following repeated S.C. administrations in pig was evaluated.
26 Landrace x Yorkshire castrated male pigs (40-45 kg BW) were randomly distributed into 4 experimental groups:
Each animal was injected BID (twice a day) subcutaneously for 4 consecutive days. One blood sample was collected each morning prior to the first injection of the day, and the day after the last injection, for IGF-I measurement.
40 Landrace x Yorkshire castrated male pigs (40-45 kg BW) were randomly distributed into 5 experimental groups:
(§1) Each animal was injected BID (twice a day) subcutaneously for 5 consecutive days. One blood sample was collected each morning prior to the first injection of the day, and the day after the last injection, for IGF-I measurement.
48 Landrace x Yorkshire castrated male pigs (40-45 kg BW) were randomly distributed into 6 experimental groups:
as §1, with “The selected doses were 30 μg/kg for hGRF(1-44)NH2 analogs and 20 μg/kg for hGRF(1-29)NH2 analogs, which give identical doses on a molar basis. Each” for “Each”, “measurements.” for “measurement.”
IGF-I levels were measured in pig serum by double antibody radioimmunoassay after formic acid-acetone extraction, as previously described (Abribat T. et al., 1993, J. Endocrinol., 39:583-589). The extraction prior to radioimmunoassay is a necessary step to remove endogenous IGF-binding proteins.
In both experiments, the IGF-I data were analyzed by a two way repeated measure analysis of variance, with day and treatment (GRF analog) as sources of variation. Multiple comparison procedures were there run (Student-Newman Keuls method). A P<0.05 was considered as statistically significant.

pig serum GH [2] = experiment: Intravenous GH-releasing potency in pigs (Example III); format: in vivo, pigs (Landrace x Yorkshire); details: 4 μg/kg
Protocol: This experiment was conducted to test the I.V. acute GH-releasing potency of (Hexenoyl trans-3)0 hGRF (1-29) NH2, a GRF analog, in a model physiologically close to human and to compare it to that of hGRF(1-29)NH2.
(Hexenoyl trans-3)0 hGRF (1-29) NH2 is a combination of the natural hGRF(1-29)NH2 and natural fatty acids. This study was a multidose, single I.V. injection study.
ADMINISTRATION: intravenous acute injection.
(§2) TEST SYSTEM: Landrace x Yorkshire pigs.
DESIGN: […] pigs (4 spare animals) were cannulated (a catheter surgically implanted in one jugular vein) within on week, before the study. On days 1 and 7, cannulated animals were randomly distributed into 7 groups (n=4 pigs per group).
Blood samples for pGH assay were collected every 20 min from 1 hour before to 5 hours after GRF injections, with additional samplings 10 and 30 min after injection (n=21 samples). Blood samples are allowed to clot at +4° C. Serum will be harvested by centrifugation, stored at −20° C. and submitted to pGH assays.

pig serum GH [3] = experiment: Subcutaneous GH-releasing potency in pigs (Example IV); format: in vivo, pigs (Landrace x Yorkshire); details: for effect on GH area under the curve, 0 to 420 minutes following injection: S.C., FIG. 5
Protocol: This experiment was conducted to test the S.C. acute GH-releasing potency of (Hexenoyl trans-3)0 hGRF (1-29) NH2, a GRF analog, in a model physiologically close to human and to compare it to that of hGRF(1-29)NH2.
ADMINISTRATION: Subcutaneous acute injection.
as §2
DESIGN: Thirty six (36) pigs (4 spare animals) were cannulated (a catheter surgically implanted in one jugular vein) within one week, before the study. On days 1 and 7, cannulated animals were randomly distributed into 8 groups (n=4 pigs per group).
Blood samples for pGH assay were collected every 20 min from 1 hour before to 7 hours after GRF injections, (n=25 samples). Blood samples were allowed to clot at +4CC. Serum is harvested by centrifugation, stored at −20° C. and submitted to pGH assays.

[4] = Experiment 1, 20 μg/kg BID SC × 4 days, mean of 6 to 7
[5] = Experiment 2, 40 μg/kg BID SC × 5 days, mean of 8
[6] = Experiment 3, 30 μg/kg BID SC × 5 days, mean of 8

Substance: TH 9507: one of 8 different hGRF(1-44)NH2 analogues provided by the sponsor; structure not stated ({Hexenoyl(3E)}-YADAIFTNSYRKVLGQLSARKLLQDIMSRQQGESNQERGARARL-NH2)
- IGF-1 levels on day 6 compared to basal levels on day 1 (IGF-1 levels in pig sera; S.C. chronic administration in growing male pigs, FIG. 7): significantly increased IGF-1 levels
- IGF-1 levels following 5 days of injection (IGF-1 levels in pig sera; S.C. chronic administration in growing male pigs, saline group 190.1±21.0 ng/ml): 279.1 ± 28.4 ng/mL

Substance: hGRF (1-29)NH2 [hGRF(1-29)NH2, reference compound]
- degradation in a serum medium [1]: rapidly degraded
- effect on IGF-I levels (serum IGF-I; Experiment 1, 20 μg/kg BID SC × 4 days): ineffective
- effect on IGF-I levels (serum IGF-I; Experiment 1, 20 μg/kg BID SC × 4 days, listed as Human GRF(1-29)NH2): no effect on IGF-I levels
- serum IGF-I, Day 2 (serum IGF-I; [4]): 235 ng/mL
- serum IGF-I, Day 3 (serum IGF-I; [4]): 263 ng/mL
- serum IGF-I, Day 4 (serum IGF-I; [4]): 258 ng/mL
- serum IGF-I, Day 5 (serum IGF-I; [4]): 262 ng/mL
- serum IGF-I, Day 1 (pretreatment) (serum IGF-I; [4]): 252 ng/mL
- serum IGF-I levels (serum IGF-I; Experiment 2, 40 μg/kg BID SC × 5 days): remained stable
- serum IGF-I, Day 2 (serum IGF-I; [5]): 243 ng/mL
- serum IGF-I, Day 3 (serum IGF-I; [5]): 267 ng/mL
- serum IGF-I, Day 4 (serum IGF-I; [5]): 275 ng/mL
- serum IGF-I, Day 5 (serum IGF-I; [5]): 267 ng/mL
- serum IGF-I, Day 6 (serum IGF-I; [5]): 256 ng/mL
- serum IGF-I, Day 1 (pretreatment) (serum IGF-I; [5]): 244 ng/mL
- effect on GH area under the curve (0 to 300 minutes following injection) (pig serum GH [2]; I.V., FIG. 3): significant effect on GH secretion
- duration of GH release following injection (pig serum GH [2]; one intravenous injection, FIG. 2): approximately 60 minutes
- effect on GH area under the curve, 0 to 420 minutes following injection (pig serum GH [3]; 1.25 μg/kg): did not induce any significant GH response
- effect on GH area under the curve, 0 to 420 minutes following injection (pig serum GH [3]; 5 μg/kg): did not induce any significant GH response
- effect on GH area under the curve, 0 to 420 minutes following injection (pig serum GH [3]; 20 μg/kg): did not induce any significant GH response
- duration of GH response following administration (pig serum GH [3]; one subcutaneous injection, 5 μg/kg, FIG. 4): ≤ 60 min

Substance: hGRF(1-44)NH2 (YADAIFTNSYRKVLGQLSARKLLQDIMSRQQGESNQERGARARL-NH2) [reference compound]
- variations of IGF-1 concentrations in the study period (IGF-1 levels in pig sera; injected subcutaneously in pigs twice a day at 10 ug/kg, FIG. 7): not able to induce any significant increase in IGF-1 levels
- effect on IGF-I levels (serum IGF-I; Experiment 3, 30 μg/kg BID SC × 5 days, except a significant effect on day 5, not sustained on day 6): little or no effect on IGF-I levels
- serum IGF-I, Day 2 (serum IGF-I; [6]): 254 ng/mL
- serum IGF-I, Day 3 (serum IGF-I; [6]): 285 ng/mL
- serum IGF-I, Day 4 (serum IGF-I; [6]): 297 ng/mL
- serum IGF-I, Day 5 (serum IGF-I; [6]): 303 ng/mL
- serum IGF-I, Day 6 (serum IGF-I; [6]): 296 ng/mL
- serum IGF-I, Day 1 (pretreatment) (serum IGF-I; [6]): 245 ng/mL
